{
  "source": "patent US12186361B2",
  "about": "“Method and formulation for inhalation” (Monash University, priority 2011, dated 2025)",
  "key": {"[1]": {"test": "Oxytocin stability: LC/MS assay content recovered after TSI experiments", "assay_type": "physicochemical", "settings": "all TSI stages, capsules and inhalation devices, after spray drying at 70° C. outlet", "experimental": "All five capsules were activated into the same TSI. The used capsules and the inhalers were then washed with Milli-Q water into a 100 mL volumetric flask and made up to volume. This was called the ‘residual’ stage. The parts that made up Stage 1 (parts A, B, C and D) were washed into a 200 mL volumetric flask and the parts that made up Stage 2 (parts E, F, G and H) were washed into a 50 mL volumetric flask with Milli-Q water and called ‘stage 1’ and ‘stage 2’ respectively. The amounts of oxytocin in each stage of the TSI were determined by LC/MS assay. The fine particle fraction (FPF) was calculated as the amount of powder that had reached stage 2 of the TSI apparatus divided by total amount of drug that was assayed. This test was the most important measure as it can determine whether a powder containing oxytocin can be formulated with suitable aerosol deposition, and consequent absorption from the lung.\nPeptides can potentially be denatured due to extreme heat. From the tests that were conducted in this study, the only indication as to oxytocin stability was the LC/MS assay content following the TSI experiments."}, "[2]": {"test_system": "uterine contraction (uterine EMG activity)", "test": "In vivo uterine EMG activity after oxytocin delivery in post-partum ewes (Example 5)", "parameters": "species or system sheep", "settings": "for delay from oxytocin administration to uterine contractile response (first EMG burst): post-partum ewes, n=5, average", "source_text": "On day 135 gestational age, pregnant ewes (n=5) were anaesthetised with thiopentone in preparation for surgery. Isuflorane (2.5% in oxygen) was used to maintain anaesthesia and depomycin, procaine penicillin and dihydrostreptomycin were given for pain relief and to reduce the risk of infection. Each ewe was shaved and a 10 cm incision was made in the abdominal skin at the midline below the navel to expose the uterine wall, with care taken to avoid large blood vessels.\nThree sterile stainless steel wires for measuring electromyographical (EMG) activity (0.07 mm diameter, inside a 2 mm catheter) were embedded in the smooth muscle layer of the myometrium surrounding the womb and held there by two stitches. The electrodes were passed through a catheter and out of the ewe via a small incision (2 cm) through the right flank. A catheter was inserted in the right jugular to allow for blood samples and to induce labour. Ewes were returned to metabolic cages and given 3-5 days to recover from surgery.\nLabour was induced with two 5 ml intravenous injections of dexamethasone (consisting of 5 mg of dexamethasone phosphate and 10 mg of dexamethasone phenylpropionate) 24 hours apart. Labour occurred 54±2 hours after the first dexamethasone injection.\nOxytocin administrations, as detailed above, were performed within 15 hours of delivery. Each sheep received an intra-tracheal dose of dry powder oxytocin formulation, an intra-tracheal instillation of oxytocin in solution and an intramuscular injection of oxytocin. There was at least a one and a half hour washout period between each treatment.\nFor intra-tracheal administration, an endoscope was passed through the nasal passage into the trachea and positioned near the first bronchial bifurcation, where either a 1 mL aliquot of oxytocin in solution (10 IU) was released or 10 mg (average) of dry powder was delivered through a modified PennCentury powder delivery device.\nThe dry powder formulation comprised a spray dried composition, as described in example 1. This powder contained 13 units of oxytocin per mg by mass, co-spray dried with equal proportions by mass of mannitol, glycine and leucine.\nDuring this procedure, bronchoscope video images were captured using a Linvatec IM3301 Pal Video Camera attached to an endoscope (Pentax FG-16X), which was saved as a digital file onto a computer using Video Capture Software.\nA cyberamp 380 in conjunction with MACLAB hardware (400 Hz Sample rate) and Chart 4 software (10V Input range) was used to display and record action potential originating from smooth muscle cells within the uterus. The cyberamp 380 used the AI401probe with positive input set at AC and negative input set at Ground. The AC cut off was 10 Hz and the prefilter gain set at 100 mV. The low pass filter was set at 300 Hz, the notch filter set to off, the output gain set to 5 and the total gain left at 500. Two way repeated measure ANOVA was performed to determine the statistical significance of our data."}, "[3]": {"settings": "pulmonary versus IM delivery and post-partum activity"}},
  "data": [
    {"smiles": "CC[C@H](C)[C@@H]1NC(=O)[C@H](Cc2ccc(O)cc2)NC(=O)[C@@H](N)CSSC[C@@H](C(=O)N2CCC[C@H]2C(=O)N[C@@H](CC(C)C)C(=O)NCC(N)=O)NC(=O)[C@H](CC(N)=O)NC(=O)[C@H](CCC(N)=O)NC1=O", "note": "[oxytocin]", "values": [
      {"measurement": "oxytocin recovered of the initial capsule's dose", "setting": "[1]", "result": "90.23±5.41", "unit": "%"},
      {"measurement": "total duration of EMG activity", "setting": "[2]; IM compared to airway delivery and normal post-partum activity", "result": "significantly longer"},
      {"measurement": "delay from oxytocin administration to uterine contractile response (first EMG burst)", "setting": "[2]; IM delivery", "result": "approximately 250 seconds"},
      {"measurement": "delay from oxytocin administration to uterine contractile response (first EMG burst)", "setting": "[2]; pulmonary (intra-tracheal) delivery", "result": "faster time of onset"},
      {"measurement": "length of the initial burst of EMG activity", "setting": "[2]; [3]", "result": "No differences"},
      {"measurement": "number of bursts over the first 30 minutes following the initial burst", "setting": "[2]; [3]", "result": "nor was there a difference"}
    ]}
  ]
}
